Among the data in US10450358 (dated 2019) are not cleaved and cleaved bond values, retold here.

A short description of data set [1]: Pichia pastoris GS115 expression culture supernatant (methanol induction), purified protein. Particulars: 28° C., up to 72 hours.
The nature of data set [2]: Pichia pastoris GS115 expression culture supernatant (BMMY medium, methanol induction), purified protein. Particulars: 28° C., up to 72 hours.

Take “AIAEPAMIAECKTRTEVFEISRRLIDPTNANFLVWPPCVEVQRCSGCCNNRNVQCRPTQVQLRPVQVRKIEIVRKKPIFKKATVTLEDHLACKCEAVAAARPVA”: the not cleaved entry in data set [1] was “SDS-PAGE result showed that PDGF-M2 is a single band”.
For the sequence “TIAEPAMIAECKTRTEVFEISRRLIDPTNANFLVWPPCVEVQRCSGCCNNRNVQCRPTQVQLRPVQVRKIEIVRKKPIFKKATVTLEDHLACKCEAVAAARPVA”, in data set [1], the not cleaved result is given as “only single band could be detected after the two mutants were reduced (WB)”.
For “TIAEPAMIAECKTRTEVFEISRRLIDRTNANFLVWPPCVEVQRCSGCCNNRNVQCRPTQVQLRPVQVRKIEIVRKKPIFKKATVTLEDHLACKCETVAAARPVT”, in data set [2], the cleaved bond entry is given as “Arg32-Thr33”.
